Measurements from BindingDB's records for doi:10.1016/0968-0896(96)00075-2 (Sapienza University of Rome, 1996).

Each molecule was assayed against T1, Gag-Pol polyprotein [588-1027]/[588-1147] (Human immunodeficiency virus 1, UniProt P04585) (assay: HIV-1 RT Assay). Details: pH 7.8; 37 °C.
T1 construct: 588-1027; 588-1147
For `O=C1Nc2ccccc2S(=O)(=O)n2cccc21` [2-thia-3,9-diazatricyclo[8.4.0.0^{3,7}]tetradeca-1(10),4,6,11,13-pentaene-2,2,8-trione], the IC50 was 4 µM.
With `O=C1Nc2ccccc2Sn2cccc21` [5H-Pyrrolo [1,2-b] [1,2,5] benzothiadiazepin-11 (10H) -one] the IC50 was over 100 µM.
With `Cn1c2ccccc2n2c(c3cccn31)=C(O)N(CCN1CCOCC1)CC2=O` [7-methyl-17-[2-(morpholin-4-yl)ethyl]-6,7,14,17-tetraazatetracyclo[12.4.0.0^{2,6}.0^{8,13}]octadeca-2,4,8(13),9,11-pentaene-15,18-dione] the IC50 was 6.3 µM.
In the case of `Cn1c2ccccc2n2c(c3cccn31)=C(O)N(CCN1CCCCC1)CC2=O` [7-methyl-17-[2-(piperidin-1-yl)ethyl]-6,7,14,17-tetraazatetracyclo[12.4.0.0^{2,6}.0^{8,13}]octadeca-2,4,8(13),9,11-pentaene-15,18-dione], the IC50 is reported as over 100 µM.
With `C=CCN1C(=O)c2cccn2S(=O)(=O)c2ccccc21` [9-(prop-2-en-1-yl)-2-thia-3,9-diazatricyclo[8.4.0.0^{3,7}]tetradeca-1(10),4,6,11,13-pentaene-2,2,8-trione] the IC50 was 9.5 µM.
In the case of `CC(C)N1C(=O)c2cccn2S(=O)(=O)c2ccccc21` [9-(propan-2-yl)-2-thia-3,9-diazatricyclo[8.4.0.0^{3,7}]tetradeca-1(10),4,6,11,13-pentaene-2,2,8-trione], the IC50 is reported as 6.3 µM.
Molecule `C/C=C/CN1C(=O)c2cccn2S(=O)(=O)c2ccccc21` [9-[(2E)-but-2-en-1-yl]-2-thia-3,9-diazatricyclo[8.4.0.0^{3,7}]tetradeca-1(10),4,6,11,13-pentaene-2,2,8-trione] has an IC50 of 21 µM.
With `C/C=C\CN1C(=O)c2cccn2S(=O)(=O)c2cc(Cl)ccc21` [9-[(2Z)-but-2-en-1-yl]-13-chloro-2-thia-3,9-diazatricyclo[8.4.0.0^{3,7}]tetradeca-1(10),4,6,11,13-pentaene-2,2,8-trione] the IC50 was 3.1 µM.
Molecule `CCN1C(=O)c2cccn2S(=O)(=O)c2ccccc21` [9-ethyl-2-thia-3,9-diazatricyclo[8.4.0.0^{3,7}]tetradeca-1(10),4,6,11,13-pentaene-2,2,8-trione] has an IC50 of 10 µM.
`CCCN1C(=O)c2cccn2S(=O)(=O)c2ccccc21` [9-propyl-2-thia-3,9-diazatricyclo[8.4.0.0^{3,7}]tetradeca-1(10),4,6,11,13-pentaene-2,2,8-trione] gave an IC50 of 24 µM.
`CN1C(=O)c2cccn2S(=O)(=O)c2ccccc21` [10-methyi-5H-pyrrolo1,2-b] [1,2,5] benzothiadiazepin-11(10H)-one-5,5-dioxide] gave an IC50 of 11 µM.
`O=C1Nc2ccc(Cl)cc2S(=O)(=O)n2cccc21` [13-chloro-2-thia-3,9-diazatricyclo[8.4.0.0^{3,7}]tetradeca-1(10),4,6,11,13-pentaene-2,2,8-trione] showed an IC50 of 0.7 µM.
`C=CCN1C(=O)c2cccn2S(=O)(=O)c2cc(Cl)ccc21` [13-chloro-9-(prop-2-en-1-yl)-2-thia-3,9-diazatricyclo[8.4.0.0^{3,7}]tetradeca-1(10),4,6,11,13-pentaene-2,2,8-trione] was tested, and the IC50 was 2.9 µM.
Molecule `CCN1C(=O)c2cccn2S(=O)(=O)c2cc(Cl)ccc21` [13-chloro-9-ethyl-2-thia-3,9-diazatricyclo[8.4.0.0^{3,7}]tetradeca-1(10),4,6,11,13-pentaene-2,2,8-trione] has an IC50 of 2.7 µM.
Work on `CN1C(=O)c2cccn2S(=O)(=O)c2cc(Cl)ccc21` [13-chloro-9-methyl-2-thia-3,9-diazatricyclo[8.4.0.0^{3,7}]tetradeca-1(10),4,6,11,13-pentaene-2,2,8-trione] yielded an IC50 of 0.5 µM.
For `CN(C)CCCN1CC(=O)n2c(c3cccn3n(C)c3ccccc32)=C1O` [17-[3-(dimethylamino)propyl]-7-methyl-6,7,14,17-tetraazatetracyclo[12.4.0.0^{2,6}.0^{8,13}]octadeca-2,4,8(13),9,11-pentaene-15,18-dione], the IC50 was 24 µM.
In the case of `CCOC(=O)CN1C(=O)c2cccn2S(=O)(=O)c2ccccc21` [ethyl 2-(2,2,8-trioxo-2-thia-3,9-diazatricyclo[8.4.0.0^{3,7}]tetradeca-1(10),4,6,11,13-pentaen-9-yl)acetate], the IC50 is reported as 31 µM.
